From patent US5338830A, “Biologically active peptide derived from chicken (chicken CNP)” (Suntory Limited, priority 1990, dated 1994)
Entries after “also recorded” stand apart in the source; their conditions may differ. Read-outs that look alike come from different tables or passages of the source. Where a SMILES comes first, the peptide text is derived from it. Bridges are numbered along the chain shown (N, C = ends). Where no end group is shown, it is not given here.

Key:
chicken rectum = tested on: chicken rectum
Protocol: Relaxant activity in chicken rectum was measured in accordance with the method of […] and Currie ([…]. and Matsuo, H., Biochem. Biophys. Res. Commun., 118, 131-139, 1984; Currie, […]., Cole, […]. and Needleman, P. Science, 221, 71-73, 1983). The values are averages of six repeats. […] Although cCNP lacked the tail sequence at the C-terminal which had been considered to be important for analog peptides in displaying biological activities such as diuretic action (Watanabe, T. X., Noda, Y., Chino […]. and Imai, M. Eur. J.

Male SD rats [1] = assay: Diuretic and natriuretic action in anesthetized rats (urine amount, electrolyte excretion); format: in vivo, rat; conditions: for excretion Cl- / excretion K+ / excretion Na+ / excretion urine: urine 15 min after versus before, Mean±S.E.M.
Protocol: (§1) Diuretic action of cCNP was measured in accordance with the method described in […] et al and Sudoh et al ([…]. et al., Biochem. Biophys. Res. Commun., 118, 131-139, 1984; Sudoh, […]., Minamino, N. and Matsuo, H. Nature, 322, 78-81, 1988). Male SD rats (weight 300-400 g) were anesthetized by intraperitoneally receiving 50 mg/kg pentobarbitol, and a tracheal cannula (PE-240, Cray Adams) was provided to secure an airway. A cannula for measuring the blood pressure (PE-50) was inserted into one of the femoral arteries, and Ringer solution was injected through a cannula (PE-10) inserted into the femoral venous, at a constant rate of 1.8 ml/hr. Urine was collected into a test tube through a bladder cannula of silastic tube (inside diameter 0.02 inch, outside diameter 0.037 inch, Dow Corning). The collection of urine was carried out for 15 min before the administration of the peptides, at 5 min intervals after the administration till 15 min, and then at appropriate time intervals. The effect of the peptides was measured by comparing the amount of the urine samples and the concentration of the electrolyte in the urine samples, as well as by the change of the blood pressure. In the above assay, a predetermined amount of cCNP was dissolved in 0.1N acetic acid, and neutralized with one tenth volume of 1.3M Tris solution. Then, the solution was diluted with 50 μl of a sterile physiological water, and administered through the cervical vein. […] In Table 2, diuretic and natriuretic responses are shown in terms of the amount of the urine, the percentages in the […] of the excretion of Na^+, K^+ and Cl^- (Means±S.E.M.), in which urine samples were collected separately over 15 min before and after the intravenous injection of the peptides to anesthetized rats. Three to six rats were used for each peptide. […] In a typical experiment, the blood pressure at the contract phase of heart was decreased by about 5% over a period of 30 min by the action of 30 μg/kg of cCNP. […] Biochem. Biophys. Res. Commun., 168, 863-870, 1990).

Male SD rats [2] = assay: Vasodepressor activity (change of blood pressure) in anesthetized rats; format: in vivo, rat
Protocol: as §1

[3] = 3.0 μg/kg intravenous, anesthetized rats
[4] = 30 μg/kg intravenous, anesthetized rats
[5] = 90 μg/kg intravenous, anesthetized rats
[6] = 200 μg/kg intravenous, anesthetized rats

For “α-hANP: A-type (atrial) natriuretic peptide used as comparison; activity set to 100 (SLRRSSCFGGRMDRIGAQSGLGCNSFRY; ends and bridges not checked; cysteine pairing not given here; UniProt P01160 124-151, looked up) [reference compound]”, the relative activity (chicken rectum; relaxant activity of equimolar amount of peptides, activity of hANP = 100, averages of six repeats) was 100, the “excretion Cl-” value (Male SD rats [1]; [3]) was 362 + 34% and the “excretion K+” value (Male SD rats [1]; [3]) was 220 ± 22%. For the same compound, the “excretion Na+” value (Male SD rats [1]; [3]) was 461 ± 41%, the excretion urine (Male SD rats [1]; [3]) was 414 ± 46% and the “decrease of blood pressure” value (Male SD rats [2]; [3]) was 9.0 ± 2.5%.

With CC[C@H](C)[C@@H]1NC(=O)[C@H](CCCNC(=N)N)NC(=O)[C@H](CC(=O)O)NC(=O)[C@H](CC(C)C)NC(=O)[C@H](CCCCN)NC(=O)[C@H](C(C)C)NC(=O)CNC(=O)[C@H](Cc2ccccc2)NC(=O)[C@@H](NC(=O)[C@H](CO)NC(=O)[C@H](CCCNC(=N)N)NC(=O)[C@H](CO)NC(=O)[C@H](CC(C)C)NC(=O)CN)CSSC[C@@H](C(=O)O)NC(=O)CNC(=O)[C@H](CC(C)C)NC(=O)CNC(=O)[C@H](CO)NC(=O)[C@H](CCSC)NC(=O)[C@H](CO)NC(=O)CNC1=O [cCNP] (H-GLSRSCFGVKLDRIGSMSGLGC-OH; disulfide 6-22) the relative activity (chicken rectum) was 321, the “relaxant activity higher than fANP-21 (fold)” value (chicken rectum; cCNP versus fANP-21) was about 5 times and the “relaxant activity higher than α-hANP (fold)” value (chicken rectum; cCNP versus α-hANP) was “about 2 times”. The “excretion Cl-” value (Male SD rats [1]; [4]) was 171 ± 2%, the “excretion K+” value (Male SD rats [1]; [4]) was 145 ± 12% and the “excretion Na+” value (Male SD rats [1]; [4]) was 160 ± 9%. For the same compound, the excretion urine (Male SD rats [1]; [4]) was 153 ± 32%, the “excretion Cl-” value (Male SD rats [1]; [5]) was 214 ± 5% and the “excretion K+” value (Male SD rats [1]; [5]) was 163 ± 02%. The “excretion Na+” value (Male SD rats [1]; [5]) was 193 ± 6%, the excretion urine (Male SD rats [1]; [5]) was 261 ± 19% and the “excretion Cl-” value (Male SD rats [1]; [6]) was 338 ± 107%. For the same compound, the “excretion K+” value (Male SD rats [1]; [6]) was 174 ± 18%, the “excretion Na+” value (Male SD rats [1]; [6]) was 385 ± 50% and the excretion urine (Male SD rats [1]; [6]) was 293 ± 50%. The “diuretic and natriuretic actions compared to that of α-hANP” value (Male SD rats [1]; anesthetized rats, ratio to α-hANP) was “about 1/100”, the “natriuretic action (in words)” value (Male SD rats [1]; rats) was “natriuretic action; also recorded: increase dose dependently” and the “decrease of blood pressure” value (Male SD rats [2]; [4]) was 4.4 ± 1.9%. The “decrease of the blood pressure at the contract phase of heart” value (Male SD rats [2]; 30 μg/kg, over a period of 30 min, typical experiment, anesthetized rats) was “about 5%”, the “decrease of blood pressure” value (Male SD rats [2]; [5]) was 0.3 ± 2.0% and the “decrease of blood pressure” value (Male SD rats [2]; [6]) was 11.5 ± 1.5%. The “vasodepressor activity (in words)” value (Male SD rats [2]; rats) was “weak vasodepressor action; also recorded: vasodepressor activity; also recorded: increase dose dependently”.
